Consider 18 molecules from patent publication EP4806891A1 (Kangbaida (Sichuan) Biotechnology Co., Ltd., priority 2023, dated 2025).

The target of the test is T1, HEK-Blue-hTLR7 cells (Homo sapiens, UniProt Q9NYK1).
T1 construct: expressed in transfected cells; host or cells: HEK-Blue-hTLR7 cells (HEK293-derived reporter line)
T1 sequence (Q9NYK1 27-1049): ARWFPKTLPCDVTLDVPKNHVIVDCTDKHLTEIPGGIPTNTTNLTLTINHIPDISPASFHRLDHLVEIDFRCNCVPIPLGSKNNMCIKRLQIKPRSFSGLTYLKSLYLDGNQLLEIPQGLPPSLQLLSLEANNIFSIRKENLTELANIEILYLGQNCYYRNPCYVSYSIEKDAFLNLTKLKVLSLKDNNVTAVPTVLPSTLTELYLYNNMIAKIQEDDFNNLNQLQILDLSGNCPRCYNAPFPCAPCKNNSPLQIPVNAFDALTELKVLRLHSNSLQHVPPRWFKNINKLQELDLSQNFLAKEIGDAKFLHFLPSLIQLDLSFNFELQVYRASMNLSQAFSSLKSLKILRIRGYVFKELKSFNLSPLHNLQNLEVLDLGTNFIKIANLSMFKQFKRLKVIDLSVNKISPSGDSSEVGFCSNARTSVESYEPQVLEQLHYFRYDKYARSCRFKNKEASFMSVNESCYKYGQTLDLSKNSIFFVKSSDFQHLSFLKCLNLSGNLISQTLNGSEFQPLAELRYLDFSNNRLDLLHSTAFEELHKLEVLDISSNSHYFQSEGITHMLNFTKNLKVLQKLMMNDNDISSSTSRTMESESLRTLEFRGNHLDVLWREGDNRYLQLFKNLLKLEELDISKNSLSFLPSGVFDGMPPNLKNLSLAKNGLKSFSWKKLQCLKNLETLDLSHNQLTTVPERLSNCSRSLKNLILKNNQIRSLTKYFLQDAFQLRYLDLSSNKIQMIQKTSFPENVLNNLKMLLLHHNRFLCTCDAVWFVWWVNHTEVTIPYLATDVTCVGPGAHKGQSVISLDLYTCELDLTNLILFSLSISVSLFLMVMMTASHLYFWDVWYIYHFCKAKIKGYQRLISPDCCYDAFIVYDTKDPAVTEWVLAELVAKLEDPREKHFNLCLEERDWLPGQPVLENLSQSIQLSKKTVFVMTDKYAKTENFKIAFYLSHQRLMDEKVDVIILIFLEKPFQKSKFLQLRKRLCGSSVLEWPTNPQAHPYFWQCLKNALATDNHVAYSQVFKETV
The test is described as follows: HEK-Blue-hTLR7 cell inhibition assay. Particulars: R848 0.8 µM, 16 h, OD 620 nm, read-out: TLR7 IC50. The test is classed as cell-based. Here is the method:
HEK-Blue-hTLR7/8/9 cell inhibition assay
1. HEK-Blue-hTLR7/8 cells (1 × 10^4 cells/well) and HEK-Blue-hTLR9 cells (1.5 × 10^4 cells/well) were seeded in a 384-well cell culture plate, with a volume of 30 µL per well. The plate was incubated at 37°C in a 5% CO2 incubator for 4 h. 2. The compound was prepared with DMSO and diluted in DMEM medium to 10 concentrations (1:3 dilution), with final concentrations of 10000, 3333.3, 1111.1, 370.4, 123.5, 41.2, 13.7, 4.6, 1.5, and 0.5 nM; R848 was prepared with DMSO and diluted in DMEM medium, with final concentrations of 0.8 µM (HEK-Blue-hTLR7) and 3 µM (HEK-Blue-hTLR8); ODN2006 was prepared with endotoxin-free water and diluted in DMEM medium, with a final concentration of 1 µM. 3. Cells treated with DMSO were used as the blank control group, while cells treated solely with Resiquimod (R848) were used as the positive control group for HEK-Blue-hTLR7/8, and cells treated solely with ODN2006 were used as the positive control group for HEK-Blue-hTLR9. Cells treated with the test compound together with R848 or ODN2006 were used as the test group. Two parallel wells were set for each group and were placed at 37°C in a 5% CO2 incubator for incubation. 4. After being incubated for 4 h, the 384-well plate of HEK-Blue-hTLR7/8 was taken out from the incubator, and R848 alone or both R848 and the diluted compound were separately added into each well. The plate was placed at 37°C in a 5% CO2 incubator for incubation for 16 h; the 384-well plate of HEK-Blue-hTLR9 was taken out from the incubator, and ODN2006 alone or both ODN2006 and the diluted compound were added separately to each well. The plate was incubated at 37°C in a 5% CO2 incubator for 16 h. 5. After being incubated for 16 h, the 384-well plate was removed from the incubator and centrifuged at 1000 rpm for 1 minute. The optical density value of each well at 620 nm was measured using a multifunctional microplate reader. 6. The cell inhibition rate was calculated as (1-(OD620 test group-OD620 blank group)/(OD620 positive group-OD620 blank group))×100%, and the half maximal inhibitory concentration (IC50) was calculated through curve fitting. Table 1: Activity of the compounds of the present disclosure in HEK-Blue-hTLR7/8/9 cellular assays

For the molecule `CN1CCN(c2nnc([C@]34CN(c5ccc(C#N)c6ncccc56)C[C@@]3(C(F)(F)F)C4)o2)CC1` [Compound 1, 5-((1S,5R)-1-(5-(4-methylpiperazin-1-yl)-1,3,4-oxadiazol-2-yl)-5-(trifluoromethyl)-3-azabicyclo[3.1.0]hexan-3-yl)quinoline-8-carbonitrile], the half-maximal inhibitory concentration (IC50) was less than 100 nM.

As for `Cc1cc(N2CC3(c4nnc(C5CCN(C)CC5)o4)C[C@]3(C(F)(F)F)C2)c2cnn(C)c2n1` (stereo partly drawn) [Compound 2, 2-((5R)-3-(1,6-dimethyl-1H-pyrazolo[3,4-b]pyridin-4-yl)-5-(trifluoromethyl)-3-azabicyclo[3.1.0]hexan-1-yl)-5-(1-methylpiperidin-4-yl)-1,3,4-oxadiazole], the half-maximal inhibitory concentration (IC50) is more than 1000 nM.

Regarding `FC(F)(F)c1ccc(N2C[C@]3(c4nnc(C5(F)CCNCC5)o4)C[C@]3(C(F)(F)F)C2)c2cccnc12` [Compound 3, 2-(4-fluoropiperidin-4-yl)-5-((1S,5R)-5-(trifluoromethyl)-3-(8-(trifluoromethyl)quinolin-5-yl)-3-azabicyclo[3.1.0]hexan-1-yl)-1,3,4-oxadiazole], the IC50 was less than 100 nM.

As to `CN1CC(c2nnc([C@]34CN(c5ccc(C(F)(F)F)c6ncccc56)C[C@@]3(C(F)(F)F)C4)o2)C1` [Compound 4, 2-(1-methylazetidin-3-yl)-5-((1S,5R)-5-(trifluoromethyl)-3-(8-(trifluoromethyl)quinolin-5-yl)-3-azabicyclo[3.1.0]hexan-1-yl)-1,3,4-oxadiazole], the IC50 was less than 100 nM.

Turning to `CN1CCC(c2nnc([C@]34CN(c5ccc(C#N)c6ncccc56)C[C@@]3(C(F)(F)F)C4)n2C)CC1` [Compound 5, 5-((1S,5R)-1-(4-methyl-5-(1-methylpiperidin-4-yl)-4H-1,2,4-triazol-3-yl)-5-(trifluoromethyl)-3-azabicyclo[3.1.0]hexan-3-yl)quinoline-8-carbonitrile], the half-maximal inhibitory concentration (IC50) was less than 1000 nM.

On to `CN1CCC(Nc2nnc([C@]34CN(c5ccc(C#N)c6ncccc56)C[C@@]3(C(F)(F)F)C4)o2)CC1` [Compound 6, 5-((1S,5R)-1-(5-((1-methylpiperidin-4-yl)amino)-1,3,4-oxadiazol-2-yl)-5-(trifluoromethyl)-3-azabicyclo[3.1.0]hexan-3-yl)quinoline-8-carbonitrile], for which the IC50 is less than 100 nM.

Consider `N#Cc1ccc(N2C[C@]3(c4nnc(N)o4)C[C@]3(C(F)(F)F)C2)c2cccnc12` [Compound 7, 5-((1S,5R)-1-(5-amino-1,3,4-oxadiazol-2-yl)-5-(trifluoromethyl)-3-azabicyclo[3.1.0]hexan-3-yl)quinoline-8-carbonitrile], for which the IC50 is less than 100 nM.

In the case of `CN1CCC(C)(c2nnc([C@]34CN(c5ccc(C#N)c6ncccc56)C[C@@]3(C(F)(F)F)C4)o2)CC1` [Compound 8, 5-((1S,5R)-1-(5-(1,4-dimethylpiperidin-4-yl)-1,3,4-oxadiazol-2-yl)-5-(trifluoromethyl)-3-azabicyclo[3.1.0]hexan-3-yl)quinoline-8-carbonitrile], the IC50 was less than 100 nM.

For the molecule `CN1CCC(c2nnc([C@]34CN(c5ccc(C#N)c6ncccc56)C[C@@]3(C(F)(F)F)C4)[nH]2)CC1` [Compound 9, 5-((1S,5R)-1-(5-(1-methylpiperidin-4-yl)-4H-1,2,4-triazol-3-yl)-5-(trifluoromethyl)-3-azabicyclo[3.1.0]hexan-3-yl)quinoline-8-carbonitrile], the IC50 is less than 100 nM.

On to `CN1[C@@H]2CC[C@H]1C[C@H](c1nnc([C@]34CN(c5ccc(C#N)c6ncccc56)C[C@@]3(C(F)(F)F)C4)o1)C2` [Compound 11, 5-((1S,5R)-1-(5-((1R,3S,5S)-8-methyl-8-azabicyclo[3.2.1]octan-3-yl)-1,3,4-oxadiazol-2-yl)-5-(trifluoromethyl)-3-azabicyclo[3.1.0]hexan-3-yl)quinoline-8-carbonitrile], for which the IC50 was less than 100 nM.

In the case of `N#Cc1ccc(N2C[C@]3(c4nnc(C5CCOCC5)o4)C[C@]3(C(F)(F)F)C2)c2cccnc12` [Compound 12, 5-((1S,5R)-1-(5-(tetrahydro-2H-pyran-4-yl)-1,3,4-oxadiazol-2-yl)-5-(trifluoromethyl)-3-azabicyclo[3.1.0]hexan-3-yl)quinoline-8-carbonitrile], the half-maximal inhibitory concentration (IC50) was less than 100 nM.

On to `CN1CC2(CCC(c3nnc([C@]45CN(c6ccc(C#N)c7ncccc67)C[C@@]4(C(F)(F)F)C5)o3)CC2)C1` [Compound 13, 5-((1S,5R)-1-(5-(2-methyl-2-azaspiro[3.5]nonan-7-yl)-1,3,4-oxadiazol-2-yl)-5-(trifluoromethyl)-3-azabicyclo[3.1.0]hexan-3-yl)quinoline-8-carbonitrile], for which the concentration for half-maximal inhibition (IC50) is less than 100 nM.

In the case of `CN1CC2CC1CC2c1nnc([C@]23CN(c4ccc(C#N)c5ncccc45)C[C@@]2(C(F)(F)F)C3)o1` (stereo partly drawn) [Compound 14, 5-((1S,5R)-1-(5-(2-methyl-2-azabicyclo[2.2.1]heptan-5-yl)-1,3,4-oxadiazol-2-yl)-5-(trifluoromethyl)-3-azabicyclo[3.1.0]hexan-3-yl)quinoline-8-carbonitrile], the IC50 was less than 100 nM.

Consider `CN1CCC(Oc2nnc([C@]34CN(c5ccc(C#N)c6ncccc56)C[C@@]3(C(F)(F)F)C4)o2)CC1` [Compound 15, 5-((1S,5R)-1-(5-((1-methylpiperidin-4-yl)oxy)-1,3,4-oxadiazol-2-yl)-5-(trifluoromethyl)-3-azabicyclo[3.1.0]hexan-3-yl)quinoline-8-carbonitrile], for which the 50% inhibitory concentration (IC50) is less than 100 nM.

Turning to `N#Cc1ccc(N2C[C@]3(c4nnc(C5CCN(CC(N)=O)CC5)o4)C[C@]3(C(F)(F)F)C2)c2cccnc12` [Compound 17, 2-(4-(5-((1S,5R)-3-(8-cyanoquinolin-5-yl)-5-(trifluoromethyl)-3-azabicyclo[3.1.0]hexan-1-yl)-1,3,4-oxadiazol-2-yl)piperidin-1-yl)acetamide], the 50% inhibitory concentration (IC50) was less than 100 nM.

With `N#Cc1ccc(N2C[C@]3(c4nnc(C5CC6(CNC6)C5)o4)C[C@]3(C(F)(F)F)C2)c2cccnc12` [Compound 18, 5-((1S,5R)-1-(5-(2-azaspiro[3.3]heptan-6-yl)-1,3,4-oxadiazol-2-yl)-5-(trifluoromethyl)-3-azabicyclo[3.1.0]hexan-3-yl)quinoline-8-carbonitrile], the half-maximal inhibitory concentration (IC50) was less than 100 nM.

With `CN1CC2(CC(c3nnc([C@]45CN(c6ccc(C#N)c7ncccc67)C[C@@]4(C(F)(F)F)C5)o3)C2)C1` [Compound 19, 5-((1S,5R)-1-(5-(2-methyl-2-azaspiro[3.3]heptan-6-yl)-1,3,4-oxadiazol-2-yl)-5-(trifluoromethyl)-3-azabicyclo[3.1.0]hexan-3-yl)quinoline-8-carbonitrile], the IC50 was less than 100 nM.

On to `N#Cc1ccc(N2C[C@]3(c4nnc([C@H]5CC[C@H](N)CC5)o4)C[C@]3(C(F)(F)F)C2)c2cccnc12` [Compound 20, 5-((1S,5R)-1-(5-((1R,4S)-4-aminocyclohexyl)-1,3,4-oxadiazol-2-yl)-5-(trifluoromethyl)-3-azabicyclo[3.1.0]hexan-3-yl)quinoline-8-carbonitrile], for which the IC50 is less than 100 nM.
